For 20 compounds, IC50 and EC50 results are on record in patent US11932634B2 (Gilead Sciences, Inc., priority 2021, dated 2024).

In one assay the target is T1, human DGKα (Homo sapiens, UniProt P23743).
T1 construct: purchased Carna Biosciences'; inferred from the same paragraph's 'obtained from Carna Biosciences')
The assay can be described thus: DGKα Biochemical Activity Assay (ADP-Glo).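 Note: recombinant enzyme converting diacylglycerol in lipid micelles with ATP, ADP formed detected by luminescence, IC50 from a four-parameter nonlinear fit, geometric mean across experiments.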

Assay [1] relates to Jurkat NFκB-luciferase cells. The experiment in a line: Jurkat NFκB-Luciferase Assay.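 Note: bioluminescence read-out normalized to DMSO basal activation and to maximum enhancement at 1 µM compound, rising signal indicating stronger T-cell activation through DGKα inhibition.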 The conditions noted are these: Homo sapiens; Jurkat NFκB-luciferase cells activated with anti-CD3 antibody (OKT3), 2.5 hrs at 37° C., One-Glo Ex; geometric mean; read-out: DGK NFKb Luciferase EC50. In kind it is cell-based.

T1 sequence (P23743 whole entry): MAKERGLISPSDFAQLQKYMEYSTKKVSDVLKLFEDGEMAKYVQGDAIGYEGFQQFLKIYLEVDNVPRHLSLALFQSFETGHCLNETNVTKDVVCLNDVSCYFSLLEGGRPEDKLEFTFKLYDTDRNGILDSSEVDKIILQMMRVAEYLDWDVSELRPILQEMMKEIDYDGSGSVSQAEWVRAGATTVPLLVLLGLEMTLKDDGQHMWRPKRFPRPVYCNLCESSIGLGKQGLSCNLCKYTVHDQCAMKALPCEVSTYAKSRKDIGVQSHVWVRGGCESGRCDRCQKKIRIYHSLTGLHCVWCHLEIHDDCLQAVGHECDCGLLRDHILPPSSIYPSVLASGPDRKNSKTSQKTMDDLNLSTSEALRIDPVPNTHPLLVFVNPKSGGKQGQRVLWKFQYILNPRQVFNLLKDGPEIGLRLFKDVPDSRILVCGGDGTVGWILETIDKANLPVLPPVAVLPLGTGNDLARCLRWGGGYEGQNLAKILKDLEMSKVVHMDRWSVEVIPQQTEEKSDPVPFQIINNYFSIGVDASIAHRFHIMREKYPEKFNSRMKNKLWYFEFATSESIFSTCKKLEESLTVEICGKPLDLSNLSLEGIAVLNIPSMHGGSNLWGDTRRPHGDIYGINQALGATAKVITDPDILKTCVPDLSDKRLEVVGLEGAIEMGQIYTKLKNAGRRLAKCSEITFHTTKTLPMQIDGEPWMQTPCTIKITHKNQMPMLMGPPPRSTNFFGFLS
Source text for human DGKα: Alternatively, the enzymatic activity of human DGKα was monitored in a biochemical assay in the presence or absence of compounds and using micelles containing 18:1 Diacylglycerol (DAG), 16:0-18:1 PS (POPS) and Octylglucoside as substrate. DGKα activity led to conversion of DAG and ATP to Phosphatidic Acid (PA) and ADP. Levels of ADP were monitored by bioluminescence using the ADP-Glo Kinase Assay (Promega) and were indicative of DGKα activity.
Ten nanoliters of test compound dissolved in DMSO at various concentrations were dispensed into a 384-well low volume nonbinding service white plates (Corning #3824) using a Labcyte Echo instrument. Recombinant DGKα Biosciences) in assay buffer (5 μL in 50 mM MOPS [3-(N-morpholino) propanesulfonic acid], pH 7.2; 0.0025% Triton X-100; 1 mM dithiothreitol; 5 mM MgCl2, 200 μM ATP) was added to the compound-containing plate and was incubated for 15 minutes at 25° C. A substrate solution (5 μL in 1.7 mM 1,2-dioleoyl-sn-glycerol [18:1 DAG], 13.5 mM 1-palmitoyl-2-oleoyl-sn-glycero-3-phospho-L-serine [16:0-18:1 PS](POPS), 2 μM CaCl2), 100 mM Octylglucoside (OG), 1 mM DTT) (obtained from Carna Biosciences) diluted in DGK ALPHA assay buffer was then added to start the reaction. Final concentrations were 1 nM DGKα, 100 μM ATP, 1 μM calcium chloride, 0.85 mM 1,2-dioleoyl-sn-glycerol (18:1 DAG), 6.75 mM 1-palmitoyl-2-oleoyl-sn-glycero-3-phospho-L-serine (16:0-18:1 PS) (POPS), 1 μM CaCl2), 50 mM Octylglucoside (OG) and 5 mM MgCl2. The reaction mixture was incubated at 25° C. for 1 hour. ADP-Glo Reagent (10 μL, 10 mM Mg added) provided by the kit was added to each well and incubated at 25° C. for 40 minutes. Then, 20 μL of Kinase Detection Reagent was added and incubated at 25° C. for 40 minutes. Luciferase activity of each well was measured via luminescence on an Envision plate reader (PerkinElmer).
Least squares curve fittings were performed using a four-parameter variable slope nonlinear regression model. […] IC50 values from multiple experiments were averaged by geometric mean and the standard deviation was calculated.

Broadly, the IC50 is the concentration at which inhibition is half-maximal. Read a high IC50 as lower potency. In general, EC50 refers to the concentration giving half of the maximal effect. `CC(F)(F)C1(C#Cc2cncc3c2CCCN3c2nc(=O)[nH]c3ccc(F)c(F)c23)CC1` [Example 76, 4-(5-((1-(1,1-difluoroethyl)cyclopropyl)ethynyl)-3,4-dihydro-1,7-naphthyridin-1(2H)-yl)-5,6-difluoroquinazolin-2(1H)-one] registered an IC50 at human DGKα of 16.1 nM. Besides, the EC50 in assay [1] stood at 1.51 nM.
Take `CC(C)(C#N)C#Cc1cc(N(CC(F)F)c2nc(=O)[nH]c3ccc(F)c(F)c23)ccn1` [Example 77, 4-[4-[2,2-difluoroethyl-(5,6-difluoro-2-oxo-1H-quinazolin-4-yl)amino]-2-pyridyl]-2,2-dimethyl-but-3-ynenitrile]: on human DGKα, the IC50 was determined as 14.1 nM. The EC50 in assay [1] was found to be 24.2 nM.
The compound `[2H]C([2H])([2H])n1c(=O)nc(N(CC(F)F)c2ccnc(C#CC(C)(C)C#N)c2)c2c(F)c(F)ccc21` [Example 79, 4-[4-[2,2-difluoroethyl-[5,6-difluoro-2-oxo-1-(trideuteriomethyl)quinazolin-4-yl]amino]-2-pyridyl]-2,2-dimethyl-but-3-ynenitrile] came in with an IC50 against human DGKα of 2.95 nM. Moreover, the EC50 in assay [1] stood at 11.3 nM.
On the same counts, the results for `[2H]C([2H])([2H])n1c(=O)nc(N(CC(F)F)c2ccnc(C#CC3(C(F)(F)F)CC3)c2)c2c(F)c(F)ccc21` [Example 80, 4-[2,2-difluoroethyl-[2-[2-[1-(trifluoromethyl)cyclopropyl]ethynyl]-4-pyridyl]amino]-5,6-difluoro-1-(trideuteriomethyl)quinazolin-2-one] are 3.75 nM and 1.94 nM.
Consider `CC(C)(O)C#Cc1cccc2c1CCCCN2c1nc(=O)[nH]c2cccc(F)c12` [Example 81, 5-fluoro-4-[6-(3-hydroxy-3-methyl-but-1-ynyl)-2,3,4,5-tetrahydro-1-benzazepin-1-yl]-1H-quinazolin-2-one], for which it took 3.6 nM to reach half-maximal inhibition on human DGKα (IC50). Besides, the concentration giving a half-maximal response (EC50) in assay [1] came out at 2.5 nM.
For `CC(C)(O)C#Cc1cccc2c1OCCCN2c1nc(=O)[nH]c2cccc(F)c12` [Example 82, 5-fluoro-4-[9-(3-hydroxy-3-methyl-but-1-ynyl)-3,4-dihydro-2H-1,5-benzoxazepin-5-yl]-1H-quinazolin-2-one], the half-maximal inhibitory concentration (IC50) on human DGKα amounted to 4.42 nM. The EC50 in assay [1] was determined as 18 nM.
At human DGKα, `[2H]C([2H])([2H])n1c(=O)nc(N2CCCOc3c(C#CC(C)(C)O)cccc32)c2c(F)cccc21` [Example 83, 5-fluoro-4-[9-(3-hydroxy-3-methyl-but-1-ynyl)-3,4-dihydro-2H-1,5-benzoxazepin-5-yl]-1-(trideuteriomethyl)quinazolin-2-one] yielded an IC50 of 13.1 nM. Further, in assay [1], the EC50 came out at 16.2 nM.
Take `[2H]C([2H])([2H])n1c(=O)nc(N2CCCOc3c(C#CC4(C)CC4)cccc32)c2c(F)cccc21` [Example 84, 5-fluoro-4-[9-[2-(1-methylcyclopropyl)ethynyl]-3,4-dihydro-2H-1,5-benzoxazepin-5-yl]-1-(trideuteriomethyl)quinazolin-2-one]: the IC50 against human DGKα was 3.67 nM. In addition, the 50% effective concentration (EC50) in assay [1] is 0.461 nM.
As for `[2H]C([2H])([2H])n1c(=O)nc(N2CCCCc3c(C#CC(C)(C)O)cccc32)c2c(F)cccc21` [Example 85, 5-fluoro-4-[6-(3-hydroxy-3-methyl-but-1-ynyl)-2,3,4,5-tetrahydro-1-benzazepin-1-yl]-1-(trideuteriomethyl)quinazolin-2-one], on human DGKα, the 50% inhibitory concentration (IC50) came to 3.31 nM. For the same compound, the EC50 in assay [1] worked out at 4.08 nM.
On the same counts, the results for `[2H]C([2H])([2H])n1c(=O)nc(N2CCCCc3c(C#CC4(C)CC4)cccc32)c2c(F)cccc21` [Example 86, 5-fluoro-4-[6-[2-(1-methylcyclopropyl)ethynyl]-2,3,4,5-tetrahydro-1-benzazepin-1-yl]-1-(trideuteriomethyl)quinazolin-2-one] are 1.13 nM and 0.133 nM.
Regarding `CC(C)(O)C#Cc1cccc2c1COCCN2c1nc(=O)[nH]c2cccc(F)c12` [Example 87, 5-fluoro-4-[6-(3-hydroxy-3-methyl-but-1-ynyl)-3,5-dihydro-2H-4,1-benzoxazepin-1-yl]-1H-quinazolin-2-one], the IC50 against human DGKα was determined as 9.58 nM. In addition, in assay [1], the concentration for a half-maximal effect (EC50) is 30.9 nM.
For the compound `CC(C)(O)C#Cc1cccc2c1COCCN2c1nc(=O)[nH]c2ccc(F)c(F)c12` [Example 88, 5,6-difluoro-4-[6-(3-hydroxy-3-methyl-but-1-ynyl)-3,5-dihydro-2H-4,1-benzoxazepin-1-yl]-1H-quinazolin-2-one], the IC50 against human DGKα was 4.7 nM. Besides, the concentration for a half-maximal effect (EC50) in assay [1] stood at 21.9 nM.
Take `O=c1nc(N2CCOCc3c(C#CC4(C(F)(F)F)CC4)cccc32)c2c(F)c(F)ccc2[nH]1` [Example 89, 5,6-difluoro-4-[6-[2-[1-(trifluoromethyl)cyclopropyl]ethynyl]-3,5-dihydro-2H-4,1-benzoxazepin-1-yl]-1H-quinazolin-2-one]: on human DGKα, inhibition was half-maximal at 2.26 nM (IC50). In addition, the concentration for a half-maximal effect (EC50) in assay [1] is 0.258 nM.
Consider `CC(C)(C#N)C#Cc1cccc2c1COCCN2c1nc(=O)[nH]c2ccc(F)c(F)c12` [Example 91, 4-[1-(5,6-difluoro-2-oxo-1H-quinazolin-4-yl)-3,5-dihydro-2H-4,1-benzoxazepin-6-yl]-2,2-dimethyl-but-3-ynenitrile], for which the IC50 on human DGKα turned out to be 5.24 nM. The EC50 in assay [1] amounted to 2.67 nM.
For the compound `CC(C)(C#Cc1cccc2c1COCCN2c1nc(=O)[nH]c2cccc(F)c12)C(F)(F)F` [Example 92, 5-fluoro-4-(6-(4,4,4-trifluoro-3,3-dimethylbut-1-yn-1-yl)-2,3-dihydrobenzo[e][1,4]oxazepin-1(5H)-yl)quinazolin-2(1H)-one], it took 37.4 nM to reach half-maximal inhibition against human DGKα (IC50). Besides, the EC50 in assay [1] worked out at 1.66 nM.
On human DGKα, `CC1(C#Cc2cccc3c2COCCN3c2nc(=O)[nH]c3cccc(F)c23)COC1` [Example 93, 5-fluoro-4-(6-((3-methyloxetan-3-yl)ethynyl)-2,3-dihydrobenzo[e][1,4]oxazepin-1(5H)-yl)quinazolin-2(1H)-one] registered a half-maximal inhibitory concentration (IC50) of 6.6 nM. Moreover, the 50% effective concentration (EC50) in assay [1] turned out to be 7.25 nM.
On the same counts, the results for `[2H]C([2H])([2H])n1c(=O)nc(N2CCOCc3c(C#CC(C)(C)O)cccc32)c2c(F)cccc21` [Example 94, 5-fluoro-4-[6-(3-hydroxy-3-methyl-but-1-ynyl)-3,5-dihydro-2H-4,1-benzoxazepin-1-yl]-1-(trideuteriomethyl)quinazolin-2-one] are 7.77 nM and 16.1 nM.
Regarding `[2H]C([2H])([2H])n1c(=O)nc(N2CCOCc3c(C#CC(C)(C)C#N)cccc32)c2c(F)cccc21` [Example 95, 4-[1-[5-fluoro-2-oxo-1-(trideuteriomethyl)quinazolin-4-yl]-3,5-dihydro-2H-4,1-benzoxazepin-6-yl]-2,2-dimethyl-but-3-ynenitrile], the IC50 on human DGKα stood at 2.1 nM. Moreover, the EC50 in assay [1] stood at 2.29 nM.
As for `[2H]C([2H])([2H])n1c(=O)nc(N2CCOCc3c(C#CC(C)(C)O)cccc32)c2c(F)c(F)ccc21` [Example 97, 5,6-difluoro-4-[6-(3-hydroxy-3-methyl-but-1-ynyl)-3,5-dihydro-2H-4,1-benzoxazepin-1-yl]-1-(trideuteriomethyl)quinazolin-2-one], at human DGKα, the concentration for half-maximal inhibition (IC50) was found to be 4.37 nM. Moreover, the EC50 in assay [1] came out at 15.8 nM.
On human DGKα, `[2H]C([2H])([2H])n1c(=O)nc(N2CCOCc3c(C#CC(C)(C)C#N)cccc32)c2c(F)c(F)ccc21` [Example 98, 4-[1-[5,6-difluoro-2-oxo-1-(trideuteriomethyl)quinazolin-4-yl]-3,5-dihydro-2H-4,1-benzoxazepin-6-yl]-2,2-dimethyl-but-3-ynenitrile] displayed an IC50 of 2.83 nM. In addition, the EC50 in assay [1] worked out at 3.29 nM.
